According to publication PMC8433807, “Scaffold Repurposing of In-House Small Molecule Candidates Leads to Discovery of First-in-Class CDK-1/HER-2 Dual Inhibitors: In Vitro and In Silico Screening” (Molecules, 2021):

Assays:
[1] = biological target: T1, CDK-1/cyclin B (Homo sapiens, UniProt P06493); assay: Kinase HotSpot activity assay, single dose in duplicate; format: biochemical; settings: 10 µM; 10 μM compound; 10 μM ATP; value is residual kinase activity, not inhibition
T1 construct: gene CDK1; Reaction Biology Corp. Kinase HotSpot service; with G2/mitotic-specific cyclin-B1
T1 sequence (P06493 whole entry): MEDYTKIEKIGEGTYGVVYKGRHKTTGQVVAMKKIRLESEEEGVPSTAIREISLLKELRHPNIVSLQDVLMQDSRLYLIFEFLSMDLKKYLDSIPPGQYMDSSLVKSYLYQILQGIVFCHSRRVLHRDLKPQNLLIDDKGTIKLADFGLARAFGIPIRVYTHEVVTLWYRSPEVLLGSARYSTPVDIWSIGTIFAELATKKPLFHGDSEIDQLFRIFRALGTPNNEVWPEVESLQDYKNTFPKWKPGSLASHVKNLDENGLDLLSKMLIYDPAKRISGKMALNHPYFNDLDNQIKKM
T1 sequence (P14635 whole entry partner): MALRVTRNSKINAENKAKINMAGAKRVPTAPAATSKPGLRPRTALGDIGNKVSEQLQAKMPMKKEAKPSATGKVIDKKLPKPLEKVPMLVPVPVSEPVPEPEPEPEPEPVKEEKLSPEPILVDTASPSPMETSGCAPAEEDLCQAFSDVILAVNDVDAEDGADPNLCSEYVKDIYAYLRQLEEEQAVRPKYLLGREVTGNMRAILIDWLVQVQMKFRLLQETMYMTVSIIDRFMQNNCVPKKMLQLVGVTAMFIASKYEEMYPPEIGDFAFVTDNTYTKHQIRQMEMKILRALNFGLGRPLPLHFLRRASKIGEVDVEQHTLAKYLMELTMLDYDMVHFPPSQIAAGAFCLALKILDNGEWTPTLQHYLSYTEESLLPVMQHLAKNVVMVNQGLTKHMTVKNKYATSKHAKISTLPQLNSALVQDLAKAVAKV

[2] = biological target: T2, HER-2 (Homo sapiens, UniProt P04626); assay: as above; format: biochemical; settings: 10 µM; 10 μM compound; 10 μM ATP; value is residual kinase activity, not inhibition
T2 construct: gene ERBB2; Reaction Biology Corp. Kinase HotSpot service
T2 sequence (P04626 676-1255 limits assumed): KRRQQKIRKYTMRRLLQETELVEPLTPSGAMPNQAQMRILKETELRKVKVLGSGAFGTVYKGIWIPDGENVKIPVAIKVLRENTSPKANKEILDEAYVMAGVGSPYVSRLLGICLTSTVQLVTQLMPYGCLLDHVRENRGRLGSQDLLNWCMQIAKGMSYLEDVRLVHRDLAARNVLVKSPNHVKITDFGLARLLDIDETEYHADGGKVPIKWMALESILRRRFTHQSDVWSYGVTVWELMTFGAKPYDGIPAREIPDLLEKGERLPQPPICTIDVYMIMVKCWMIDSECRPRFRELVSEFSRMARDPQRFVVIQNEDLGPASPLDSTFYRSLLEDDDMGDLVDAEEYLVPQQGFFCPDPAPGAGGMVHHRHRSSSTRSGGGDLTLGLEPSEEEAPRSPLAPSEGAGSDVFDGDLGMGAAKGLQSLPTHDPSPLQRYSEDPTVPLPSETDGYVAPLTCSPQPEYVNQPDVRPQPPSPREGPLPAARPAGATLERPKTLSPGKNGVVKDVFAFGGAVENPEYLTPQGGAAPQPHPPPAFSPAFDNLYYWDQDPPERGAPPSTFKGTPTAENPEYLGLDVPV

In the case of `O=C(Nc1ccc2c(ccn2C(=O)c2cccc(F)c2)c1)c1ccnnc1` [15l], the “% Activity / CDK-1/cyclin B” value [1] is reported as 51% and the “% Activity / HER-2” value [2] is reported as 52%.
